Measurements: ChEMBL document CHEMBL6115053, “Optimization and Characterization of N-Acetamide Indoles as Antimalarials That Target PfATP4” (J Med Chem, 2025)

Columns and labels:
HepG2 = assay: Cytotoxicity against human HepG2 cells assessed as inhibition of cell growth incubated for 48 hrs by celltiterglo assay; assay type: toxicity, cell-based; settings: hepg2, 48 h
Plasmodium falciparum = assay: Antiplasmodial activity against asexual Plasmodium falciparum 3D7 infected in human […] cells assessed as reduction in parasite growth measured for 72 hrs by LDH assay; assay type: functional, organism-based; settings: 3D7, 72 h

Row | Compound | CC50 (HepG2) [µM] | EC50 (Plasmodium falciparum) [µM]
1 | CC(C(=O)Nc1ccccc1Cl)n1ccc2ccc(-c3cnn(C)c3)cc21 (stereo unspecified) | > 40 | 
2 | Cc1nnc(-c2ccc3ccn(CC(=O)Nc4cc(F)ccc4F)c3c2)o1 | > 40 | 1.25
3 | COc1ccccc1NC(=O)Cn1ccc2ccc(-c3nnc(C)o3)cc21 |  | > 10
4 | O=C(Cn1ccc2ccc(-c3cnn(C(F)(F)F)c3)cc21)Nc1ccccc1Cl |  | > 10
5 | Cc1nnc(-c2ccc3ccn(CC(=O)Nc4cccnc4)c3c2)o1 | > 40 | 4.25
6 | Cc1nnc(-c2ccc3ccn(CC(=O)Nc4cccc(C(F)(F)F)c4)c3c2)o1 | > 40 | 0.615
7 | Cc1c(-c2ccc3ccn(CC(=O)Nc4ccccc4Cl)c3c2)cnn1C | > 40 | 0.248
8 | O=C(Cn1ccc2ccc(-c3nnc(C(F)(F)F)o3)cc21)Nc1ccccc1Cl |  | > 10
9 | Cc1nnc(-c2ccc3ccn(CC(=O)Nc4ccccc4F)c3c2)o1 | > 40 | 2.1
10 | Cc1noc(-c2ccc3ccn(CC(=O)Nc4ccccc4Cl)c3c2)n1 |  | > 10
11 | Cn1cc(-c2ccc3c(Br)cn(CC(=O)Nc4ccccc4Cl)c3c2)cn1 | > 40 | 0.165
12 | Cc1nnc(-c2ccc3ccn(CC(=O)Nc4ccncc4)c3c2)o1 | > 40 | 4.68
13 | Cc1nnc(-c2ccc3ccn(CC(=O)Nc4ccncc4Cl)c3c2)o1 | > 40 | 7.13
14 | Cn1cc(-c2ccc3ncn(CC(=O)Nc4ccccc4Cl)c3c2)cn1 |  | > 10
15 | Cc1cccc(NC(=O)Cn2ccc3ccc(-c4nnc(C)o4)cc32)c1 | > 40 | 2.8
16 | Cc1nn(C)cc1-c1ccc2ccn(CC(=O)Nc3ccccc3Cl)c2c1 | > 40 | 0.23
17 | Cc1nnc(-c2ccc3ccn(CC(=O)Nc4ccccn4)c3c2)o1 | > 40 | 4.78
18 | Cc1cc(-c2ccc3ccn(CC(=O)Nc4ccccc4Cl)c3c2)ccn1 |  | 2.83
19 | Cc1nnc(-c2ccc3ccn(CC(=O)Nc4ccccc4C(F)(F)F)c3c2)o1 | > 40 | 3.1
20 | Cc1nnc(-c2ccc3ccn(CC(=O)Nc4cc(F)cc(F)c4)c3c2)o1 | > 40 | 1.18

Row | Compound | CC50 (HepG2) [µM] | EC50 (Plasmodium falciparum) [µM]
21 | Cc1ccc(-c2ccc3ccn(CC(=O)Nc4ccccc4Cl)c3c2)cn1 |  | > 10
22 | Cc1cn(CC(=O)Nc2ccccc2Cl)c2cc(-c3cnn(C)c3)ccc12 | > 40 | 0.868
23 | COc1cccc(NC(=O)Cn2ccc3ccc(-c4nnc(C)o4)cc32)c1 | > 40 | 3.6
24 | Cn1cc(-c2cnc3ccn(CC(=O)Nc4ccccc4Cl)c3c2)cn1 |  | > 10
25 | Cc1nnc(-c2ccc3ccn(CC(=O)Nc4ccccc4)c3c2)o1 | > 40 | 1.63
26 | Cc1ccc(-c2ccc3ccn(CC(=O)Nc4ccccc4Cl)c3c2)s1 |  | > 10
27 | O=C(Cn1ccc2ccc(-c3nnco3)cc21)Nc1ccccc1Cl |  | > 10
28 | CC(C)n1cc(-c2ccc3ccn(CC(=O)Nc4ccccc4Cl)c3c2)cn1 |  | > 10
29 | O=C(Cn1ccc2ccc(-c3cnn(CC(F)(F)F)c3)cc21)Nc1ccccc1Cl |  | > 10
30 | COc1cc(NC(=O)Cn2cc(Cl)c3ccc(-c4cn(C)nc4C)cc32)cc(OC)c1OC |  | 0.022
31 | Cc1nnc(-c2ccc3ccn(CC(=O)Nc4ccccc4C)c3c2)o1 |  | 1.18
32 | Cc1nnc(-c2ccc3ccn(CC(=O)Nc4ccc(C#N)cc4)c3c2)o1 |  | > 10
33 | Cc1cc2ccc(-c3cnn(C)c3)cc2n1CC(=O)Nc1ccccc1Cl | > 40 | 
34 | Cc1cc(-c2ccc3ccn(CC(=O)Nc4ccccc4Cl)c3c2)cnn1 |  | 3.65
35 | O=C(Cn1ccc2ccc(-c3cnn(-c4ccccc4)c3)cc21)Nc1ccccc1Cl |  | > 10
36 | Cc1ccc(-c2ccc3ccn(CC(=O)Nc4ccccc4Cl)c3c2)cc1 |  | > 10
37 | Cc1nnc(-c2ccc3ccn(CC(=O)N(C)c4ccccc4)c3c2)o1 |  | > 10
38 | Cn1ccc(-c2ccc3ccn(CC(=O)Nc4ccccc4Cl)c3c2)n1 |  | > 10
39 | CC(C)c1nnc(-c2ccc3ccn(CC(=O)Nc4ccccc4Cl)c3c2)o1 |  | > 10
40 | Cn1cc(-c2ccc3cnn(CC(=O)Nc4ccccc4Cl)c3c2)cn1 |  | > 10
